Assay results: publication PMC11938010, “Positive Charge in an Antimalarial Compound Unlocks Broad-Spectrum Antibacterial Activity” (JACS Au, 2025)
In brackets after ≈: the same amount, converted by molar mass. Read-outs that look alike come from different tables or passages of the source.

Legend:
[1] = tested on: Plasmodium falciparum NF54; assay: P. falciparum in vitro drug sensitivity assay on asexual blood stage parasites ([3H]-hypoxanthine incorporation); type: cell-based; settings: read-out: PfNF54 IC50
[2] = tested on: Escherichia coli ∆tolC; assay: microbe, parasite or virus in culture; type: cell-based; settings: Escherichia coli
[3] = tested on: E. coli K12; assay: In vitro antibacterial activity (growth inhibition, OD600), E. coli wild-type; type: cell-based; settings: Escherichia coli, Table 1 and main text
[4] = tested on: Acinetobacter baumannii; assay: In vitro antibacterial activity (growth inhibition, OD600), A. baumannii; type: cell-based; settings: for MIC: read-out: Ab MIC95
[5] = tested on: Pseudomonas aeruginosa PA14; assay: In vitro antibacterial activity (growth inhibition, OD600), P. aeruginosa; type: cell-based; settings: PA14, 50 μM compound, Table 1 and main text, read-out: PA14 inh. at 50 μM
[6] = tested on: Streptococcus pneumoniae (DSM20566); assay: In vitro antibacterial activity (MIC), S. pneumoniae; type: cell-based; settings: Streptococcus pneumoniae, DSM20566, read-out: Sp MIC95
[7] = tested on: Staphylococcus aureus ssp. Aureus; assay: In vitro antibacterial activity (MIC), S. aureus; type: cell-based; settings: Staphylococcus aureus, read-out: Sa MIC95
[8] = tested on: Mycobacterium tuberculosis (Mtb) strain H37Rv; assay: microbe, parasite or virus in culture; type: cell-based; settings: 168 h, 7 days, footnote b: not active at maximum solubility, read-out: MtbH37Rv MIC90
[9] = in vitro; settings: human, HepG2 CC50, 48 h, MTT
[10] = Plasmodium falciparum, NF54, Table 1 and main text
[11] = K12, 50 μM compound, read-out: EcK12 inh. at 50 μM
[12] = Table S1, printed inside the inhibition column, with standard deviation, unit from Table 1 footnote
[13] = printed inside the Ab inhibition column, Table 1 and main text
[14] = Table S2, with standard deviation
[15] = K12, read-out: EcK12 inh. at 50 μM, 50 μM compound
[16] = 50 μM compound, Table 1 and main text, read-out: Ab inh. at 50 μM

SMILES | IC50 [1, 10] [nM] | IC50 ([1]; Table 1 and main text) [nM] | MIC ([2]; read-out: EcΔtolC MIC95) [µM] | MIC ([2]; read-out: Ec∆tolC MIC95 (µM)) [µM] | inhibition at 50 µM [3, 11] [%] | MIC [4, 12] [µM] | MIC [4, 13] [µM] | inhibition at 50 µM [5] [%] | MIC ([6]; Table 1 and main text) [µM] | MIC [6, 14] [µM] | MIC ([7]; Table 1 and main text) [µM] | MIC [7, 14] [µM] | MIC90 [8] [µM] | CC50 [9] [µM] | inhibition at 50 µM [3, 15] [%] | inhibition at 50 µM [4, 16] [%] | inhibition at 50 µM ([4]; 50 µM, Table S1, with standard deviation, read-out: Ab inh. at 50 µM (%)) [%]
O=C(Nc1cc(N2CCNCC2)cc(C(F)(F)F)c1)c1cc(-c2cc(Cl)ccc2O)[nH]n1 [Compound 11A] | ≤ 60 | 50 | 7 (≈ 3.26 µg/mL) | 7 ± 2 (≈ 3.26 µg/mL) | 72 | 22 ± 3 (≈ 10.2 µg/mL) | 22 (≈ 10.2 µg/mL) | < 10 | 5 (≈ 2.33 µg/mL) | 5 ± 1 (≈ 2.33 µg/mL) | 6 (≈ 2.8 µg/mL) | 6 ± 2 (≈ 2.8 µg/mL) | 32 (≈ 14.9 µg/mL) | 9 | – | – | –
O=C(Nc1ccc(CNC2=NCCN2)c(C(F)(F)F)c1)c1cc(-c2cc(Cl)ccc2O)[nH]n1 [Compound 10C, 5-(5-Chloro-2-hydroxyphenyl)-N-(4-(((4,5-dihydro-1H-imidazol-2-yl)amino)methyl)-3-(trifluoromethyl)phenyl)-1H-pyrazole-3-carboxamide] | 404 | – | 5.5 (≈ 2.63 µg/mL) | 5.5 ± 0.8 (≈ 2.63 µg/mL) | – | – | – | 29 | 14 (≈ 6.7 µg/mL) | 14 ± 2 (≈ 6.7 µg/mL) | 8 (≈ 3.83 µg/mL) | 8 ± 2 (≈ 3.83 µg/mL) | 16 (≈ 7.66 µg/mL) | > 50 | 77 | 47 | 49.6 ± 0.9
N=C(N)NCc1cccc(NC(=O)c2cc(-c3cc(Cl)ccc3O)[nH]n2)c1 [Compound 7G] | 210 | – | 13 (≈ 5 µg/mL) | 13 ± 3 (≈ 5 µg/mL) | – | – | – | 56 | 49 (≈ 18.9 µg/mL) | 49 (≈ 18.9 µg/mL) | 22 (≈ 8.47 µg/mL) | 22 ± 2 (≈ 8.47 µg/mL) | 64 (≈ 24.6 µg/mL) | > 50 | ≥ 45 | 24 | –
O=C(Nc1ccc(N2CCNCC2)c(C(F)(F)F)c1)c1cc(-c2cc(Cl)ccc2O)[nH]n1 [Compound 12A, 5-(5-Chloro-2-hydroxyphenyl)-N-(4-(piperazin-1-yl)-3-(trifluoromethyl)phenyl)-1H-pyrazole-3-carboxamide] | ≤ 60 | 60 | 18.9 (≈ 8.8 µg/mL) | 18.9 ± 0.5 (≈ 8.8 µg/mL) | 12 | – | – | < 10 | 8 (≈ 3.73 µg/mL) | 8 ± 2 (≈ 3.73 µg/mL) | 14 (≈ 6.52 µg/mL) | 14 ± 2 (≈ 6.52 µg/mL) | 16 (≈ 7.45 µg/mL) | 6 | – | 29 | –
NCc1cc(NC(=O)c2cc(-c3cc(Cl)ccc3O)[nH]n2)cc(C(F)(F)F)c1 [Compound 9A, N-(3-(Aminomethyl)-5-(trifluoromethyl)phenyl)-5-(5-chloro-2-hydroxyphenyl)-1H-pyrazole-3-carboxamide] | 82 | – | 8 (≈ 3.29 µg/mL) | 8 ± 3 (≈ 3.29 µg/mL) | < 10 | 48.9 ± 0.5 (≈ 20.1 µg/mL) | 49 (≈ 20.1 µg/mL) | < 10 | 11 (≈ 4.52 µg/mL) | 10.8 ± 2.5 (≈ 4.44 µg/mL) | 12.1 (≈ 4.97 µg/mL) | 12.1 ± 0.6 (≈ 4.97 µg/mL) | 32 (≈ 13.1 µg/mL) | 7 | – | – | –
CC(C)(C)OC(=O)N1CCN=C1NCc1ccc(NC(=O)c2cc(-c3cc(Cl)ccc3O)[nH]n2)cc1C(F)(F)F [Compound 10D, tert-Butyl 2-((4-(5-(5-chloro-2-hydroxyphenyl)-1H-pyrazole-3-carboxamido)-2-(trifluoromethyl)benzyl)amino)-4,5-dihydro-1H-imidazole-1-carboxylate] | 140 | – | 18 (≈ 10.4 µg/mL) | 18 ± 6 (≈ 10.4 µg/mL) | 17 | – | – | < 10 | > 50 | > 50 | 11.6 (≈ 6.72 µg/mL) | 11.6 ± 0.2 (≈ 6.72 µg/mL) | 16 (≈ 9.26 µg/mL) | 11 | – | < 10 | –
O=C(Nc1cc(N2CCN(C3=NCCN3)CC2)cc(C(F)(F)F)c1)c1cc(-c2cc(Cl)ccc2O)[nH]n1 [Compound 11C, 5-(5-Chloro-2-hydroxyphenyl)-N-(3-(4-(4,5-dihydro-1H-imidazol-2-yl)piperazin-1-yl)-5-(trifluoromethyl)phenyl)-1H-pyrazole-3-carboxamide] | 590 | – | 7 (≈ 3.74 µg/mL) | 7 ± 2 (≈ 3.74 µg/mL) | 63 | – | – | < 10 | 7 (≈ 3.74 µg/mL) | 7 ± 2 (≈ 3.74 µg/mL) | 8 (≈ 4.27 µg/mL) | 8 ± 2 (≈ 4.27 µg/mL) | 8 (≈ 4.27 µg/mL) | > 50 | – | 53 | –
